{"source": "paper PMC6582486", "about": "“Stapled EGFR peptide reduces inflammatory breast cancer and inhibits additional HER-driven models of cancer” (Journal of Translational Medicine, 2019)", "key": {"MCF10A breast cells": {"tested_on": "MCF10A breast cells", "assay": "Cell viability assay (MTT), MCF10A", "type": "cell-based, human", "source_text": "Fig. 1 Hydrocarbon stapling leads to increased EJ1 activity in comparison to HER-directed monoclonal therapies. a EJ1 sequence with PTD4 domain (underlined) corresponding to EGFR juxtamembrane domain sequence 643–663. Stabilized alpha helix (SAH) variations 1–5 beneath, with asterisks (*) indicating sites of staple. Control peptide (CP) with altered residues indicated by double underline. Stapled control (5) asterisks (*) indicate sites of staple. b Cartoon representation of EJ1 structure, with staple variation 5 highlighted. Positively charged residues indicated in blue, negatively charged residues in red. c Cartoon representation of CP structure, with staple variation highlighted. d Cell viability assay performed in MDA-MB-468 cells after 24 h comparing unstapled EJ1 versus staple variations SAH1, SAH4, and SAH5, with increasing concentrations. e Visualization of MDA-MB-468 cells untreated, treated with 10 µM EJ1, and 10 µM SAH5-EJ1 after 60 min. Scale bars represent 50 µm. f–h Cell viability assay performed in MDA-MB-468, MCF10A, or CHO cells over 3 days comparing treatment with Sapitinib (blue lines), SAH5-EJ1 (red lines), and SAH5-CP (grey lines). […] Absorbance was read at 540 nm by plate reader (uQuant, Bio-Tek Instruments). P-values were calculated from a one-way ANOVA."}, "[1]": {"assay": "Plasma concentration after tail-vein injection (toxicokinetics);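 on SAH-EJ1 concentration in plasma, average: blood sampled on day 1 after the tail-vein injection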", "type": "in vivo, CD-1 mice", "conditions": "for level at 0.5 h / level at 1 h: average ± SD, read-out: SAH-EJ1 concentration in plasma, average", "procedure": "Toxicology was performed by IITRI. The study was conducted in compliance with the US Food and Drug Administration (FDA) good laboratory practice (GLP) Regulations (Code of Federal Regulations Title 21 Part 58) to evaluate the toxicokinetics, local tolerability, immunogenicity, and potential toxicity of SAH5-EJ1 following three times per week intravenous (IV) dosing for 28 days in mice. Male and female CD-1 IGS [Crl:CD1(ICR)] mice (135 per sex) were received from Wilmington, MA-based Charles River Laboratories, Inc.’s Kingston facility (Stone Ridge, NY)."}}, "note": "Read-outs that look alike come from different tables or passages of the source. Where a SMILES comes first, the peptide text is derived from it. Bridges are numbered along the chain shown (N, C = ends). [ ]: non-standard residue; d: D form. R8 = C=CCCCCCC[C@@](C)(N)C(=O)O; S5 = C=CCCC[C@](C)(N)C(=O)O", "data": [{"smiles": "CC[C@H](C)[C@H](NC(=O)[C@H](Cc1c[nH]cn1)NC(=O)[C@H](CCCNC(=N)N)NC(=O)[C@H](CCCNC(=N)N)NC(=O)[C@H](CCCNC(=N)N)NC(=O)[C@H](CCSC)NC(=O)[C@H](Cc1ccccc1)NC(=O)[C@H](C)NC(=O)[C@H](CCCNC(=N)N)NC(=O)[C@H](C)NC(=O)[C@H](CCC(N)=O)NC(=O)[C@H](CCCNC(=N)N)NC(=O)[C@H](C)NC(=O)[C@H](C)NC(=O)[C@H](C)NC(=O)[C@H](CCCNC(=N)N)NC(=O)[C@H](C)NC(=O)[C@@H](N)Cc1ccc(O)cc1)C(=O)N[C@H](C(=O)N[C@@H](CCCNC(=N)N)C(=O)N[C@@H](CCCCN)C(=O)N[C@@H](CCCNC(=N)N)C(=O)N[C@]1(C)CCCCCCC=CCCC[C@@](C)(C(=O)N[C@@H](CCCNC(=N)N)C(=O)N[C@@H](CCC(=O)O)C(N)=O)NC(=O)[C@H](CCC(N)=O)NC(=O)[C@H](CC(C)C)NC(=O)[C@H](CC(C)C)NC(=O)[C@H](CCCNC(=N)N)NC(=O)[C@H](CCCNC(=N)N)NC(=O)[C@H](CC(C)C)NC1=O)C(C)C", "note": "[SAH5-EJ1] (H-YARAAARQARAFMRRRHIVRKR[R8]LRRLLQ[S5]RE-NH2; staple 23-30)", "values": [{"measurement": "concentration at which complete cell death was observed", "setting": "MCF10A breast cells", "result": 10, "unit": "µM"}, {"measurement": "level at 0.5 h", "setting": "[1]; CD-1, mouse, plasma, female, 10 mg/kg IV, day 1, 0.5 h", "result": "0.562 ± 0.047", "unit": "µg/mL"}, {"measurement": "level at 1 h", "setting": "[1]; CD-1, mouse, plasma, female, 10 mg/kg IV, day 1, 1 h", "result": "0.542 ± 0.033", "unit": "µg/mL"}, {"measurement": "level at 0.5 h", "setting": "[1]; CD-1, mouse, plasma, female, 15 mg/kg IV, day 1, 0.5 h", "result": "0.554 ± 0.064", "unit": "µg/mL"}, {"measurement": "level at 1 h", "setting": "[1]; CD-1, mouse, plasma, female, 15 mg/kg IV, day 1, 1 h", "result": "0.569 ± 0.027", "unit": "µg/mL"}, {"measurement": "level at 0.5 h", "setting": "[1]; CD-1, mouse, plasma, male, 10 mg/kg IV, day 1, 0.5 h", "result": "0.638 ± 0.11", "unit": "µg/mL"}, {"measurement": "level at 1 h", "setting": "[1]; CD-1, mouse, plasma, male, 10 mg/kg IV, day 1, 1 h", "result": "0.665 ± 0.15", "unit": "µg/mL"}, {"measurement": "level at 0.5 h", "setting": "[1]; CD-1 IGS [Crl:CD1(ICR)], mouse, plasma, female, 5 mg/kg IV, day 1, 0.5 h", "result": "0.569 ± 0.019", "unit": "µg/mL"}, {"measurement": "level at 1 h", "setting": "[1]; CD-1 IGS [Crl:CD1(ICR)], mouse, plasma, female, 5 mg/kg IV, day 1, 1 h", "result": "0.529 ± 0.03", "unit": "µg/mL"}, {"measurement": "level at 0.5 h", "setting": "[1]; CD-1 IGS [Crl:CD1(ICR)], mouse, plasma, male, 5 mg/kg IV, day 1, 0.5 h", "result": "1.02 ± 0.35", "unit": "µg/mL"}, {"measurement": "level at 1 h", "setting": "[1]; CD-1 IGS [Crl:CD1(ICR)], mouse, plasma, male, 5 mg/kg IV, day 1, 1 h", "result": "0.576 ± 0.039", "unit": "µg/mL"}, {"measurement": "level at 0.5 h", "setting": "[1]; CD-1 IGS [Crl:CD1(ICR)], mouse, plasma, male, 15 mg/kg IV, day 1, 0.5 h", "result": "0.901 ± 0.16", "unit": "µg/mL"}, {"measurement": "level at 1 h", "setting": "[1]; CD-1 IGS [Crl:CD1(ICR)], mouse, plasma, male, 15 mg/kg IV, day 1, 1 h", "result": "0.657 ± 0.037", "unit": "µg/mL"}, {"measurement": "level at 2 h", "setting": "[1]; CD-1 IGS [Crl:CD1(ICR)], plasma, male, 15 mg/kg IV, day 1, 2 h, mouse 2 of 3, read-out: SAH-EJ1 concentration in plasma", "result": 0.551, "unit": "µg/mL"}, {"measurement": "time by which peptide was not detectable in plasma", "setting": "[1]; female mice, highest body weight dosage", "result": "≤ 2", "unit": "h"}, {"measurement": "SAH-EJ1 concentration in plasma", "setting": "[1]; female, 5 mg/kg IV, day 1, 1 h, mouse 1 of 3", "result": "BQL (BQL represents below quantifiable limits (0.5 µg/mL))"}, {"measurement": "SAH-EJ1 concentration in plasma", "setting": "[1]; female, 5 mg/kg IV, day 1, 2 h, mouse 1 of 3", "result": "BQL (BQL represents below quantifiable limits (0.5 µg/mL))"}, {"measurement": "SAH-EJ1 concentration in plasma", "setting": "[1]; female, 5 mg/kg IV, day 1, 2 h, mouse 2 of 3", "result": "BQL (BQL represents below quantifiable limits (0.5 µg/mL))"}, {"measurement": "SAH-EJ1 concentration in plasma", "setting": "[1]; female, 5 mg/kg IV, day 1, 2 h, mouse 3 of 3", "result": "BQL (BQL represents below quantifiable limits (0.5 µg/mL))"}, {"measurement": "SAH-EJ1 concentration in plasma", "setting": "[1]; female, 5 mg/kg IV, day 1, 4 h, mouse 1 of 3", "result": "BQL (BQL represents below quantifiable limits (0.5 µg/mL))"}, {"measurement": "SAH-EJ1 concentration in plasma", "setting": "[1]; female, 5 mg/kg IV, day 1, 4 h, mouse 2 of 3", "result": "BQL (BQL represents below quantifiable limits (0.5 µg/mL))"}, {"measurement": "SAH-EJ1 concentration in plasma", "setting": "[1]; female, 5 mg/kg IV, day 1, 4 h, mouse 3 of 3", "result": "BQL (BQL represents below quantifiable limits (0.5 µg/mL))"}, {"measurement": "SAH-EJ1 concentration in plasma", "setting": "[1]; female, 5 mg/kg IV, day 1, 8 h, mouse 1 of 3", "result": "BQL (BQL represents below quantifiable limits (0.5 µg/mL))"}, {"measurement": "SAH-EJ1 concentration in plasma", "setting": "[1]; female, 5 mg/kg IV, day 1, 8 h, mouse 2 of 3", "result": "BQL (BQL represents below quantifiable limits (0.5 µg/mL))"}, {"measurement": "SAH-EJ1 concentration in plasma", "setting": "[1]; female, 5 mg/kg IV, day 1, 8 h, mouse 3 of 3", "result": "BQL (BQL represents below quantifiable limits (0.5 µg/mL))"}, {"measurement": "SAH-EJ1 concentration in plasma", "setting": "[1]; female, 5 mg/kg IV, day 1, 24 h, mouse 1 of 3", "result": "BQL (BQL represents below quantifiable limits (0.5 µg/mL))"}, {"measurement": "SAH-EJ1 concentration in plasma", "setting": "[1]; female, 5 mg/kg IV, day 1, 24 h, mouse 2 of 3", "result": "BQL (BQL represents below quantifiable limits (0.5 µg/mL))"}, {"measurement": "SAH-EJ1 concentration in plasma", "setting": "[1]; female, 5 mg/kg IV, day 1, 24 h, mouse 3 of 3", "result": "BQL (BQL represents below quantifiable limits (0.5 µg/mL))"}, {"measurement": "SAH-EJ1 concentration in plasma", "setting": "[1]; female, 10 mg/kg IV, day 1, 1 h, mouse 2 of 3", "result": "BQL (BQL represents below quantifiable limits (0.5 µg/mL))"}, {"measurement": "SAH-EJ1 concentration in plasma", "setting": "[1]; female, 10 mg/kg IV, day 1, 2 h, mouse 1 of 3", "result": "BQL (BQL represents below quantifiable limits (0.5 µg/mL))"}, {"measurement": "SAH-EJ1 concentration in plasma", "setting": "[1]; female, 10 mg/kg IV, day 1, 2 h, mouse 2 of 3", "result": "BQL (BQL represents below quantifiable limits (0.5 µg/mL))"}, {"measurement": "SAH-EJ1 concentration in plasma", "setting": "[1]; female, 10 mg/kg IV, day 1, 2 h, mouse 3 of 3", "result": "BQL (BQL represents below quantifiable limits (0.5 µg/mL))"}, {"measurement": "SAH-EJ1 concentration in plasma", "setting": "[1]; female, 10 mg/kg IV, day 1, 4 h, mouse 1 of 3", "result": "BQL (BQL represents below quantifiable limits (0.5 µg/mL))"}, {"measurement": "SAH-EJ1 concentration in plasma", "setting": "[1]; female, 10 mg/kg IV, day 1, 4 h, mouse 2 of 3", "result": "BQL (BQL represents below quantifiable limits (0.5 µg/mL))"}, {"measurement": "SAH-EJ1 concentration in plasma", "setting": "[1]; female, 10 mg/kg IV, day 1, 4 h, mouse 3 of 3", "result": "BQL (BQL represents below quantifiable limits (0.5 µg/mL))"}, {"measurement": "SAH-EJ1 concentration in plasma", "setting": "[1]; female, 10 mg/kg IV, day 1, 8 h, mouse 1 of 3", "result": "BQL (BQL represents below quantifiable limits (0.5 µg/mL))"}, {"measurement": "SAH-EJ1 concentration in plasma", "setting": "[1]; female, 10 mg/kg IV, day 1, 8 h, mouse 2 of 3", "result": "BQL (BQL represents below quantifiable limits (0.5 µg/mL))"}, {"measurement": "SAH-EJ1 concentration in plasma", "setting": "[1]; female, 10 mg/kg IV, day 1, 8 h, mouse 3 of 3", "result": "BQL (BQL represents below quantifiable limits (0.5 µg/mL))"}, {"measurement": "SAH-EJ1 concentration in plasma", "setting": "[1]; female, 10 mg/kg IV, day 1, 24 h, mouse 1 of 3", "result": "BQL (BQL represents below quantifiable limits (0.5 µg/mL))"}, {"measurement": "SAH-EJ1 concentration in plasma", "setting": "[1]; female, 10 mg/kg IV, day 1, 24 h, mouse 2 of 3", "result": "BQL (BQL represents below quantifiable limits (0.5 µg/mL))"}, {"measurement": "SAH-EJ1 concentration in plasma", "setting": "[1]; female, 10 mg/kg IV, day 1, 24 h, mouse 3 of 3", "result": "BQL (BQL represents below quantifiable limits (0.5 µg/mL))"}, {"measurement": "SAH-EJ1 concentration in plasma", "setting": "[1]; female, 15 mg/kg IV, day 1, 0.5 h, mouse 3 of 3", "result": "BQL (BQL represents below quantifiable limits (0.5 µg/mL))"}, {"measurement": "SAH-EJ1 concentration in plasma", "setting": "[1]; female, 15 mg/kg IV, day 1, 1 h, mouse 2 of 3", "result": "BQL (BQL represents below quantifiable limits (0.5 µg/mL))"}, {"measurement": "SAH-EJ1 concentration in plasma", "setting": "[1]; female, 15 mg/kg IV, day 1, 2 h, mouse 1 of 3", "result": "BQL (BQL represents below quantifiable limits (0.5 µg/mL))"}, {"measurement": "SAH-EJ1 concentration in plasma", "setting": "[1]; female, 15 mg/kg IV, day 1, 2 h, mouse 2 of 3", "result": "BQL (BQL represents below quantifiable limits (0.5 µg/mL))"}, {"measurement": "SAH-EJ1 concentration in plasma", "setting": "[1]; female, 15 mg/kg IV, day 1, 2 h, mouse 3 of 3", "result": "BQL (BQL represents below quantifiable limits (0.5 µg/mL))"}]}]}
